In patent US9598407B2, “Antibacterial piperidinyl substituted 3,4-dihydro-1H-[1,8]naphthyridinones” (JANSSEN SCIENCES IRELAND UC, priority 2011, dated 2017):
Values after ≈ are worked out from the molar mass of the structure shown.

Legend:
M. catarrhalis ATCC 8176 = experiment: Antimicrobial spectrum, CLSI broth microdilution MIC; format: cell-based, Moraxella catarrhalis; details: b-lactamase negative, MHB
Procedure: (§1) Minimum Inhibitory Concentrations (MICs) were determined in accordance with the Clinical and Laboratory Standards Institute (CLSI) methodology against aerobic bacteria (CLSI M07-A8) (see Clinical and Laboratory Standards Institute. 2009. Methods for dilution antimicrobial susceptibility tests for bacteria that grow aerobically. CLSI document M07-A8, Vol. 29, No. 2.) by the broth microdilution method with cation-adjusted Mueller-Hinton broth (CA-MHB) medium for the majority of organisms, except for Haemophilus influenza, where Haemophilis test medium (HTM) broth was used. Descriptions of the individual organisms can be found in the table. Where possible, ATCC standard strains were tested.
(§2) The inoculum density for the susceptibility testing was standardized to give a final inoculum of approximately 5×10^5 CFU/mL.
(§3) Stock solutions of the compounds were prepared in DMSO at concentrations of 1 mg/mL. Linezolid was prepared in DMSO at a concentration of 2 mg/mL. Stock solutions of all compounds were diluted into CA-MHB to give a range of two-fold dilutions, depending upon the sensitivity of the organism being tested.

[1] = In vivo pharmacokinetic and oral bioavailability; details: male Swiss mice
Procedure: The in vivo pharmacokinetics and oral bioavailability of the compound of the examples was/is investigated in male Swiss mice (fed) following single intravenous (i.v.) bolus and oral (p.o.) administration. For the i.v. and p.o. solution formulations, the compound was/is dissolved in a 20% HP-β-CD solution. The pH of the formulations was/is around pH 4. All i.v. formulations were isotonic.

S.aureus NRS121 = experiment: Antimicrobial spectrum, CLSI broth microdilution MIC; format: cell-based, Staphylococcus aureus; details: LZD-R, MHB
Procedure: as §1, §2, §3

S. aureus NRS119 = experiment: as above; format: cell-based, Staphylococcus aureus; details: LZD-R, MHB
Procedure: as §1, §2, §3

S. aureus ATCC 29213 = experiment: as above; format: cell-based, Staphylococcus aureus; details: reference strain MSSA, MHB
Procedure: as §1, §2, §3

S. aureus ATCC 43300 = experiment: as above; format: cell-based, Staphylococcus aureus; details: reference strain MRSA, MHB
Procedure: as §1, §2, §3

S. aureus NRS120 = experiment: as above; format: cell-based, Staphylococcus aureus; details: LZD-R, MHB
Procedure: as §1, §2, §3

[2] = target: S. aureus ATCC 29213 FabI (Staphylococcus aureus (strain MRSA252), UniProt Q6GI75); experiment: Staphylococcus aureus FabI enzyme inhibition assay; format: biochemical; details: 30 minutes at room temperature, pH 6.5
Procedure: D.1 FabI Enzyme Inhibition: Staphylococcus aureus FabI Enzyme Inhibition Assay
FabI enzyme inhibition assays were carried out in half-area, 384-well microtitre plates. Compounds were evaluated in 40-μl assay mixtures containing 100 mM NaADA, pH 6.5 (ADA=N-[2-acetamido]-2iminodiacetic acid), 250 μM crotonoyl-CoA, 625 μM NADH and 50 μg/ml S. aureus ATCC 29213 FabI Inhibitors were typically varied over the range of 50 to 0.39 μM. The reaction mixtures were incubated for 30 minutes at room temperature and the reaction was stopped by adding 200 mM Tris buffer (pH 9.0) to create a pH-shift. The consumption of NADH was monitored by measuring the change in absorbance at […]. By comparing sample readings to those of negative (absence of compound) and positive (absence of enzyme) controls, the percent inhibition of enzymatic activity of the compounds was determined A best-fit curve is fitted by a minimum of squares method. From this an IC50-value (expressed in μg/ml), resulting in 50% inhibition of enzymatic activity, was obtained.

Human HelaM cells = experiment: Cytotoxicity MTT assay (TOX HELAM 222.125); format: cell-based; details: 72 hours
Procedure: Cytotoxicity of the compounds was evaluated using the MTT assay. Human HelaM cells grown in 96-well plates were exposed to serial dilutions of the tested compounds (final volume of 0.2 ml) and incubated for 72 hours at 37° C. and 5% CO2 Inhibitors are typically varied over the range of 25 to 0.8 μM. The final DMSO concentration in the assay is 0.5%. MTT (3-(4,5-Dimethylthiazol-2-yl)-2,5-diphenyltetrazolium bromide, a tetrazole) was added and reduced to purple formazan only in living cells. Solubilization of the formazan crystals was achieved by adding 100 μl 2-propanol. Cell viability was determined by measuring the absorbance of the reduced formazan, giving a purple color, at 540 nm and 690 nm. The absorbance measured at 690 nm was automatically subtracted from the absorbance at 540 nm, to eliminate the effects of non-specific absorption. The percent cytotoxicity achieved by the compounds was calculated according to standard methods. Cytotoxicity is reported as CC50, the concentration that causes a 50% reduction in cell viability.
The results are depicted in the table D2 below (TOX HELAM).

S. aureus = experiment: Antibacterial susceptibility testing, IC90 with 10% human serum (STA + 10% HS 361.169); format: cell-based, Staphylococcus aureus; details: S. aureus with 10% human serum
Procedure: (§4) The following bacteria were used: Staphylococcus aureus ATCC 29213, methicillin-resistant Staphylococcus aureus (MRSA) ATCC 700788 and Escherichia coli ATCC 35218. The bacteria used in this study were grown overnight in flasks containing 100 ml Mueller-Hinton broth (Difco cat. nr. 0757-17) in sterile de-ionized water, with shaking, at 37° C. Stocks were store at −70° C. until use.
(§5) Bacteria were incubated on a tryptic soy agar plate containing 5% sheep blood (Becton Dickinson cat. nr. 254053) for 18-24 hours at 35° C. in aerobic conditions (first passage). For the second passage, fresh Mueller-Hinton broth is inoculated with 5-10 colonies and grown overnight at 35° C. until turbidity (reaching log-phase) in aerobic conditions is reached. The bacterial suspension is then adjusted to 0.5 McFarland density and further diluted 1:100 in Mueller Hinton broth medium. This is used as inoculum.
(§6) MIC assays were performed by the broth microdilution method in a 96-well format (flat-bottom microtitre plates) with a final volume of 0.1 ml Mueller Hinton broth containing two-fold serial dilutions of compounds and inoculated with 5×10^5 CFU/ml of bacteria (standard inoculum size according to CLSI guidelines). Inhibitors are typically varied over the range of 63 to 0.49 μM. The final DMSO concentration in the assay was 1.25% (maximum tolerable DMSO concentration=6%). In the assays where the effect of human serum on the activity of the compounds against S. aureus was tested, human serum was added at a final concentration of 10%. The plates were incubated at 35° C. for 16-20 hours. At the end of incubation the bacterial growth was quantified fluorometrically. For this, resazurin was added to all wells and the plates were re-incubated. The incubation time is dependent on the type of bacteria. A change in color from blue to pink indicated the growth of bacteria. The fluorescence was read in computer-controlled fluorometer (Fluoroskan Ascent FL, Labsystems) at an excitation wavelength 540 nm and an emission wavelength of 590 nm. The % growth inhibition achieved by the compounds was calculated according to standard methods. The IC90 (expressed in μg/ml) was defined as the 90% inhibitory concentration for bacterial growth. A panel of reference compounds were simultaneously tested for QC approval.
The results are depicted in the table D2 below (STA+10% HS).

H. influenza ATCC 49247 = experiment: Antimicrobial spectrum, CLSI broth microdilution MIC; format: cell-based, Haemophilus influenzae; details: HTM broth
Procedure: as §1, §2, §3

[3] = system: Staphylococcus aureus ATCC 29213; experiment: Antibacterial susceptibility testing, IC90 determination (STA 361.159); format: cell-based; details: STA ATCC 29213; 90% inhibitory concentration for bacterial growth
Procedure: D.2 In Vitro Method for Testing Compounds for Antibacterial Activity Against Various Bacterial Strains Preparation of Bacterial Suspensions for Susceptibility Testing
as §4, §5
Antibacterial Susceptibility Testing: IC90 Determination
as §6

E. coli tolC mutant = experiment: Antimicrobial spectrum, CLSI broth microdilution MIC; format: cell-based, Escherichia coli; details: MHB
Procedure: as §1, §2, §3

E. coli ATCC 25922 = experiment: as above; format: cell-based, Escherichia coli; details: reference strain, MHB
Procedure: as §1, §2, §3

O=C1CCc2cc(/C=C/C(=O)N3CCC(Cc4cccs4)CC3)cnc2N1 [compound 37]
MIC90 (M. catarrhalis ATCC 8176): 1 µg/mL (≈ 2.62 µM) | AUC0-inf ([1]; i.v., 2.5 mg/kg): 7464 ng·h/mL | Half life (t1/2) ([1]; i.v., 2.5 mg/kg): 2.7 h | Plasma clearance Cl ([1]; i.v., 2.5 mg/kg): 5.5 mL/min/kg | Vdz ([1]; i.v., 2.5 mg/kg): 1.3 L/kg | C0 ([1]; i.v., 2.5 mg/kg, 20% HP-β-CD solution): 2929 ng/mL | Oral bioavailability ([1]; p.o. 10 mg/kg vs i.v. 2.5 mg/kg): 72% | AUC0-inf ([1]; p.o., 10 mg/kg): 21394 ng·h/mL | Half life (t1/2) ([1]; p.o., 10 mg/kg): 3.2 h | Tmax ([1]; p.o., 10 mg/kg): 2.0 h | Cmax ([1]; p.o., 10 mg/kg, 20% HP-β-CD solution): 2950 ng/mL | MIC90 (S.aureus NRS121): 0.125 µg/mL (≈ 0.328 µM) | MIC90 (S. aureus NRS119): 0.125 µg/mL (≈ 0.328 µM) | MIC90 (S. aureus ATCC 29213): 0.125 µg/mL (≈ 0.328 µM) | MIC90 (S. aureus ATCC 43300): 0.125 µg/mL (≈ 0.328 µM) | MIC90 (S. aureus NRS120): 0.125 µg/mL (≈ 0.328 µM) | FabI IC50 [2]: 0.50 µg/mL | TOX HELAM (222.125) CC50 (Human HelaM cells): 19.12 µg/mL | STA + 10% HS (361.169) IC90 (S. aureus): 0.36 µg/mL | MIC90 (H. influenza ATCC 49247): >8 µg/mL | STA (361.159) IC90 [3]: 0.30 µg/mL | MIC90 (E. coli tolC mutant): >8 µg/mL | MIC90 (E. coli ATCC 25922): >8 µg/mL

O=C1CCc2cc(/C=C/C(=O)N3CC=C(c4ccccc4)CC3)cnc2N1 [compound 7]
FabI IC50 [2]: 0.41 µg/mL | TOX HELAM (222.125) CC50 (Human HelaM cells): >9.028 µg/mL | STA + 10% HS (361.169) IC90 (S. aureus): 2.54 µg/mL | STA (361.159) IC90 [3]: 2.07 µg/mL

O=C1CCc2cc(/C=C/C(=O)N3CC=C(c4ccco4)CC3)cnc2N1 [compound 9]
FabI IC50 [2]: 0.34 µg/mL | TOX HELAM (222.125) CC50 (Human HelaM cells): >8.776 µg/mL | STA + 10% HS (361.169) IC90 (S. aureus): 2.65 µg/mL | STA (361.159) IC90 [3]: 2.91 µg/mL
